Data on two compounds can be found in US9145542B2, “Method for producing aldehyde from CO2” (The Regents of the University of California, priority 2008, dated 2015).

The subject of the series is S. elongatus. Put plainly: tolerance of S. elongatus to isobutyraldehyde and isobutanol (growth by OD730). It counts as cell-based, Synechococcus elongatus PCC7942. As to the method:
FIGS. 1P-1Q show S. elongatus tolerance to isobutyraldehyde and isobutanol. Effect of isobutyraldehyde (P) or isobutanol (Q) addition on growing cultures of S. elongatus as determined by optical density (OD730). At OD730 ˜1.0, isobutyraldehyde or isobutanol was added to the cultures at final concentration (mg/L) of: 0 (squares), 500 (circles), 750 (triangles), 1000 (diamonds) and 2500 (stars).
The tolerance of S. elongatus to isobutyraldehyde and isobutanol was also measured (FIG. 1P). […] In addition, the isobutyraldehyde tolerance level of S. elongatus is much higher than the concentration found in the culture medium during production. […] Thus, the in situ product removal system effectively avoids toxicity effects.
Wild-type S. elongatus and mutant strains were grown in a modified BG-11 medium with the following modifications: 50 mM NaHCO3 and 10 mg/l thiamine were added. For an experiment with 5% CO2 bubbling, 50 mM NaHCO3 was not added. Cyanobacterial cells were grown at 30° C. under fluorescent light (55 μE s^−1 m^−2), which was provided by eight 86-cm 20-W fluorescent tubes placed 15 cm from the cell culture. Cell growth was monitored by measuring OD730 of each culture.

As for `CC(C)CO` [isobutanol], the effect on growth entry (wild-type S. elongatus, the same concentration (750 mg/l) added to growing cultures, growth by OD730) is reported as “growth retardation”.

Regarding `CC(C)C=O` [isobutyraldehyde], under “S. elongatus, isobutyraldehyde compared with isobutanol”, the “relative toxicity to the cell” value was “less toxic to the cell than isobutanol”. Further, where the note is “wild-type S. elongatus, compound added to growing cultures at OD730 ~1.0, growth by OD730”, the tolerated concentration entry was “up to 750 mg/l”.
